ChEMBL document CHEMBL1130565, “Development of the new potent non-peptide gpIIb/IIIa antagonist NSL-95301 by utilizing combinatorial technique” (Bioorg Med Chem Lett, 1997)

Species on record: Homo sapiens
Assay: In vitro collagen induced platelet aggregation inhibitory activity using human platelet rich plasma anti-coagulated with 0.38% trisodium citrate
Type: functional
Conditions: not given

IC50 [µM]	SMILES
0.092	CC(C)(C(=O)N1CCC(CC(=O)O)CC1)C(NC(=O)c1ccc(C(=N)N)cc1)c1ccccc1 (single isomer, unassigned; (+))
31	CC(C)(C(=O)N1CCC(CC(=O)O)CC1)C(NC(=O)c1ccc(C(=N)N)cc1)c1ccccc1 (single isomer, unassigned; (-))
0.19	CC(C)(C(=O)N1CCC(CC(=O)O)CC1)C(NC(=O)c1ccc(C(=N)N)cc1)c1ccccc1 (stereo in doubt; 18)

Same assay, conditions: Homo sapiens, Plasma

IC50 [µM]	SMILES
16	CCC(C(=O)N1CCC(CC(=O)O)CC1)C(NC(=O)c1ccc(C(=N)N)cc1)c1ccccc1 (stereo not drawn)
5	C[C@@H](CC(=O)N1CCC(CC(=O)O)CC1)NC(=O)c1ccc(C(=N)N)cc1
30	C[C@H](NC(=O)c1ccc(C(=N)N)cc1)C(=O)N1CCC(CC(=O)O)CC1
9.2	CC(C)[C@@H](CC(=O)N1CCC(CC(=O)O)CC1)NC(=O)c1ccc(C(=N)N)cc1
3.8	CCCCC(CNC(=O)c1ccc(C(=N)N)cc1)C(=O)N1CCC(CC(=O)O)CC1 (stereo not drawn)
7.5	CN(CC(=O)N1CCC(CC(=O)O)CC1)C(=O)c1ccc(C(=N)N)cc1
25	CC(C)C(CNC(=O)c1ccc(C(=N)N)cc1)C(=O)N1CCC(CC(=O)O)CC1 (stereo not drawn)
4.1	N=C(N)c1ccc(C(=O)NCC(Cc2ccccc2)C(=O)N2CCC(CC(=O)O)CC2)cc1 (stereo not drawn)
0.59	CC(CNC(=O)c1ccc(C(=N)N)cc1)C(=O)N1CCC(CC(=O)O)CC1 (stereo not drawn)
6.5	CN(CCC(=O)N1CCC(CC(=O)O)CC1)C(=O)c1ccc(C(=N)N)cc1
110	C[C@H](NC(=O)c1ccc(C(=N)N)cc1)C(=O)N1CCC(C(=O)O)CC1
33	N=C(N)c1ccc(C(=O)NCCC(=O)N2CCC(C(=O)O)CC2)cc1
0.94	N=C(N)c1ccc(C(=O)NCC(Cc2ccc(O)cc2)C(=O)N2CCC(CC(=O)O)CC2)cc1 (stereo not drawn)
0.57	CC(C)(CNC(=O)c1ccc(C(=N)N)cc1)C(=O)N1CCC(CC(=O)O)CC1

Continued, compound first:

SMILES	IC50 [µM]
N=C(N)Nc1ccc(C(=O)NCCC(=O)N2CCC(C(=O)O)CC2)cc1	750
N=C(N)c1ccc(C(=O)N[C@@H](CC(=O)N2CCC(CC(=O)O)CC2)C(=O)Oc2ccccc2)cc1	4.1
CN(CC(=O)N1CCC(CC(=O)O)CC1)C(=O)c1ccc(CN=C(N)N)cc1	> 1000
N=C(N)c1ccc(C(=O)N[C@H](CC(=O)N2CCC(CC(=O)O)CC2)c2ccccc2)cc1	5.2
C[C@H](NC(=O)c1ccc(NC(=N)N)cc1)C(=O)N1CCC(C(=O)O)CC1	> 1000
N=C(N)c1ccc(C(=O)N[C@@H](CC(=O)N2CCC(CC(=O)O)CC2)C(=O)OC2CCCCC2)cc1	1.9
N=C(N)NCc1ccc(C(=O)NCCC(=O)N2CCC(C(=O)O)CC2)cc1	> 1000
N=C(N)c1ccc(C(=O)N2CCCC(C(=O)N3CCC(CC(=O)O)CC3)C2)cc1 (stereo not drawn)	25
CC(C)C(C(=O)N1CCC(CC(=O)O)CC1)C(NC(=O)c1ccc(C(=N)N)cc1)c1ccccc1 (stereo not drawn)	82
C[C@H](NC(=O)c1ccc(CN=C(N)N)cc1)C(=O)N1CCC(C(=O)O)CC1	710
N=C(N)c1ccc(C(=O)NCCC(=O)N2CCC(OCC(=O)O)CC2)cc1	18
CN(CC(=O)N1CCC(C(=O)O)CC1)C(=O)c1ccc(CN=C(N)N)cc1	53
N=C(N)c1ccc(C(=O)N2CCCC2CC(=O)N2CCC(CC(=O)O)CC2)cc1 (stereo not drawn)	4.3
CN(CC(=O)N1CCC(C(=O)O)CC1)C(=O)c1ccc(C(=N)N)cc1	330
CN(CC(=O)N1CCC(C(=O)O)CC1)C(=O)c1ccc(NC(=N)N)cc1	100
CN(CC(=O)N1CCC(CC(=O)O)CC1)C(=O)c1ccc(NC(=N)N)cc1	750
